Measurements: patent publication US10590392B2, “Generation of airway epithelial organoids from human pluripotent stem cells” (TRUSTEES OF BOSTON UNIVERSITY, priority 2017, dated 2020)
Entries after “also recorded” stand apart in the source; their conditions may differ.

Legend:
[1] = test system: 7XTCF-mCherry Wnt reporter in FG293 cells; experiment: Lentiviral 7XTCF-mCherry Wnt reporter dose-response in FG293 cells; conditions: 3 μM CHIR
[2] = test system: iPSC-derived NKX2-1GFP+ lung progenitors; experiment: Post-specification patterning of hPSC-derived lung progenitors, treatment day 15 to 19, RT-qPCR/flow cytometry of NKX2-1GFP+ cells; format: cell-based, human
Protocol: Measurement of mRNA expression by reverse transcriptase quantitative real time PCR (RT-qPCR) was performed as previously described(Longmire et al., 2012). Briefly, RNA was extracted from cells using a QIAzol Lysis Reagent (Qiagen, Venlo, Netherlands) and 150 ng of RNA was transcribed to cDNA using reverse transcription reagents (Applied Biosystems). Real time PCR (qPCR) was performed using TaqMan Fast Universal PCR Master Mix (ThermoFisher) and TaqMan (Applied Biosystems) reagents. The cDNA was diluted 1:3 and 2 μL of cDNA was added to each 25 μL (for Applied Biosystems StepOne 96-well System) or 12.5 μL (for Applied Biosystems QuantStudio7 384-well system) qPCR reaction. Each sample was run in technical triplicates and cycle (Ct) values were averaged between triplicates for analysis. Relative gene expression, normalized to 18S control, was calculated as fold change in 18S-normalized gene expression, compared to baseline, using the 2^(−ΔΔCT) method. Baseline, defined as fold change=1, was set to undifferentiated iPSC levels, or if undetected, a cycle number of 40 was assigned to allow fold change calculations. Adult lung control RNA was extracted from a normal lung biopsy sample. Primers were all TaqMan probes purchased from Applied Biosystems. Specifics of primers used are detailed in Table 1.
Day 14-16 cells from the lung progenitor directed differentiation protocol were harvested with 0.05% Trypsin-EDTA (Invitrogen) and replated in clumps in either Matrigel-coated tissue culture dishes in two-dimensional culture or in three-dimensional Matrigel drops. Matrigel drops were formed by resuspending cell clumps directly in undiluted Matrigel matrix, pipetting 50-100 μL into each well, and allowing the Matrigel/cell mixture to gel for 30 minutes at 37° C. Cell drops were then covered completely with growth medium.
Post-specification culture conditions were determined by the addition of growth factors to cSFDM. For patterning experiments, growth factors were added to a base media containing 10 ng/mL rhFGF10 (“Base”) and additional factors detailed in the results text. For concentrations of growth factors required for each experiment, see Table 2. Cells were additionally cultured with 10 μM Y-27632 (Tocris) for 24 hours after replating. Doses of growth factors were determined based on previously published directed differentiation protocols (Huang et al., 2013; Kurmann et al., 2015; Longmire et al., 2012) as well as dose-response experiments using 7XTCF lentiviral reporters for CHIR99021 (Figure S2d-e). […]
To test whether the inventors could efficiently induce a proximal vs distal program in iPSC-derived lung progenitors, the inventors modulated key developmental pathways beginning on day 15 of differentiation in our model system (FIG. 1C-1E), and monitored changes in SOX2 and SOX9 expression that are due to coordinated proximal vs distal patterning changes in purified NKX2-1^GFP+ cells within 4 days of treatment. At day 15, post-lung specification, the inventors cultured cells in a base media of “low dose” (10 ng/mL) FGF10 to promote proliferation without strongly inducing patterning(Volckaert et al., 2013). From this base media, the inventors stimulated the following pathways: Wnt signaling via the potent GSK3β inhibitor CHIR99021, hereafter CHIR; FGF signaling using FGF2 or high dose (100 ng/mL) FGF10; BMP signaling using BMP4; and TGFβ signaling using TGFβ

[3] = NKX2-1GFP+ sorted cells on day 19 after treatment day 15-19, vs base media (10 ng/mL FGF10), RT-qPCR
[4] = in response to CHIR withdrawal day 15-19, within 4 days

Cc1c[nH]c(-c2cnc(NCCNc3ccc(C#N)cn3)nc2-c2ccc(Cl)cc2Cl)n1 [CHIR, CHIR99021]
Wnt activation (lentiviral TCF reporter) [1]: induce Wnt activation | cytotoxicity [1]: without significant cytotoxicity | expression of Wnt signaling responsive genes LEF1, NKD1, AXIN2 ([2]; CHIR withdrawal day 15-19, day 19): reduced expression | lentiviral TCF-driven reporter (7XTCF-mCherry) expression ([2]; CHIR withdrawal day 15-19, day 19, NKX2-1+ cells): reduced | SCGB3A2 mRNA expression [2, 3]: decreased expression | SOX2 mRNA expression [2, 3]: significantly decreased | SOX9 mRNA expression [2, 3]: increased | expression of distal markers SOX9 and ETV5 [2, 4]: downregulated; also recorded: decreased expression | expression of proximal airway markers (SCGB3A2, TP63/P63, MUC5AC) [2, 4]: upregulated; also recorded: significantly increased expression | percentage of NKX2-1GFP+ cells by day 19 ([2]; withdrawal of CHIR from day 15 to 19, flow cytometry): significantly decreased percentage
